Results as given in PubChem BioAssay AID328 (DTP/NCI, 2004).
Where “and” joins values, the source holds several entries; their conditions need not be identical. Equal values may be shown once. Toxic doses and inconclusive results are not listed.

Tested on: BDF1 mice, P388 leukemia ip, median survival T/C
Assay: NCI In Vivo Anticancer Drug Screen. Data for tumor model P388 Leukemia (intraperitoneal) in B6D2F1 (BDF1) mice
Details: endpoint: median survival time, higher = longer survival
How it was run: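 Steps: implant the tumour, treat one group with compound and another with vehicle, record survival, then divide treated by control.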

[1] = dose: 6.25 mg/kg/injection, schedule: Q04DX003 (ip), vehicle: Klucel (hydroxypropylcellulose) (HPC)
[2] = dose: 12.5 mg/kg/injection, schedule: Q04DX003 (ip), vehicle: Klucel (hydroxypropylcellulose) (HPC)
[3] = dose: 100.0 mg/kg/injection, schedule: Q04DX003 (ip), vehicle: Klucel (hydroxypropylcellulose) (HPC)
[4] = dose: 200.0 mg/kg/injection, schedule: Q04DX003 (ip), vehicle: Klucel (hydroxypropylcellulose) (HPC)
[5] = dose: 400.0 mg/kg/injection, schedule: Q04DX003 (ip), vehicle: Klucel (hydroxypropylcellulose) (HPC)
[6] = dose: 50.0 mg/kg/injection, schedule: Q01DX009 (ip), vehicle: saline with Tween-80
[7] = dose: 100.0 mg/kg/injection, schedule: Q01DX009 (ip), vehicle: saline with Tween-80
[8] = dose: 200.0 mg/kg/injection, schedule: Q01DX009 (ip), vehicle: saline with Tween-80
[9] = dose: 400.0 mg/kg/injection, schedule: Q01DX009 (ip), vehicle: saline with Tween-80
[10] = dose: 25.0 mg/kg/injection, schedule: Q01DX009 (ip), vehicle: saline with Tween-80
[11] = dose: 50.0 mg/kg/injection, schedule: Q01DX009 (ip), vehicle: Klucel (hydroxypropylcellulose) (HPC)
[12] = dose: 100.0 mg/kg/injection, schedule: Q01DX009 (ip), vehicle: Klucel (hydroxypropylcellulose) (HPC)
[13] = dose: 25.0 mg/kg/injection, schedule: Q01DX009 (ip), vehicle: Klucel (hydroxypropylcellulose) (HPC)

## c1ccc2c3csc4ccccc4c-3nc2c1
dose: 1.56 mg/kg/injection, schedule: Q04DX003 (ip), vehicle: Klucel (hydroxypropylcellulose) (HPC)
  T/C: 95 % of control
dose: 3.12 mg/kg/injection, schedule: Q04DX003 (ip), vehicle: Klucel (hydroxypropylcellulose) (HPC)
  T/C: 95 % of control
dose: 5.7 mg/kg/injection, schedule: Q01DX009 (ip), vehicle: Klucel (hydroxypropylcellulose) (HPC)
  T/C: 92 % of control and 113 % of control
[1]
  T/C: 104 % of control
dose: 8.75 mg/kg/injection, schedule: Q01DX009 (ip), vehicle: Klucel (hydroxypropylcellulose) (HPC)
  T/C: 88 % of control and 118 % of control
[2]
  T/C: 104 % of control
dose: 13.0 mg/kg/injection, schedule: Q01DX009 (ip), vehicle: Klucel (hydroxypropylcellulose) (HPC)
  T/C: 92 % of control and 113 % of control

## CCCCCCCCCCCCCCCCCC(=O)Oc1ccc(OCc2ccccc2)cc1
[3]
  T/C: 100 % of control
[4]
  T/C: 100 % of control
[5]
  T/C: 90 % of control

## Cc1ccc(C)c2c1CCCC2=O
[6]
  T/C: 86 % of control
[7]
  T/C: 90 % of control
[8]
  T/C: 100 % of control
[9]
  T/C: 86 % of control

## CCOC(=O)Cc1csc2nc(-c3ccccc3)nn12
[6]
  T/C: 106 % of control
[7]
  T/C: 108 % of control
[8]
  T/C: 115 % of control

## CC(=O)CC(C)=O.CC(=O)CC(C)=O.CC(=O)CC(C)=O.[In]
dose: 100.0 mg/kg/injection, schedule: Q04DX003 (ip), vehicle: saline
  T/C: 109 % of control
dose: 200.0 mg/kg/injection, schedule: Q04DX003 (ip), vehicle: saline
  T/C: 104 % of control

## CCC(CO)NC(=O)/C=C/c1ccccc1 (stereo not given)
[8]
  T/C: 91 % of control
[9]
  T/C: 91 % of control

## CC(C)C(C)/C=C\C(C)C1CCC2C3=CCC4CC(O)CCC4(C)C3CCC21C (stereo not given)
dose: 6.25 mg/kg/injection, schedule: Q01DX009 (ip), vehicle: saline with Tween-80
  T/C: 100 % of control
dose: 12.5 mg/kg/injection, schedule: Q01DX009 (ip), vehicle: saline with Tween-80
  T/C: 101 % of control
[10]
  T/C: 94 % of control

## CCOC(=O)Nc1ccc2c(c1)/C(=N\NC(N)=S)c1ccccc1-2
dose: 0.37 mg/kg/injection, schedule: Q01DX009 (ip), vehicle: gum acacia
  T/C: 120 % of control
dose: 0.75 mg/kg/injection, schedule: Q01DX009 (ip), vehicle: gum acacia
  T/C: 108 % of control
dose: 1.5 mg/kg/injection, schedule: Q01DX009 (ip), vehicle: gum acacia
  T/C: 96 % of control and 108 % of control
dose: 3.0 mg/kg/injection, schedule: Q04DX003 (ip), vehicle: gum acacia
  T/C: 92 % of control
dose: 6.0 mg/kg/injection, schedule: Q04DX003 (ip), vehicle: gum acacia
  T/C: 100 % of control
[11]
  T/C: 86 % of control
[12]
  T/C: 90 % of control
[3]
  T/C: 86 % of control
dose: 200.0 mg/kg/injection, schedule: Q01DX001 (ip), vehicle: Klucel (hydroxypropylcellulose) (HPC)
  T/C: 86 % of control
dose: 200.0 mg/kg/injection, schedule: Q01DX009 (ip), vehicle: Klucel (hydroxypropylcellulose) (HPC)
  T/C: 100 % of control
[4]
  T/C: 100 % of control
[5]
  T/C: 109 % of control
dose: 400.0 mg/kg/injection, schedule: Q04DX003 (ip), vehicle: gum acacia
  T/C: 100 % of control

## c1ccc2c(c1)C1c3cccc[n+]3C2CC1n1c2ccccc2c2ccccc21 (stereo not given)
dose: 6.25 mg/kg/injection, schedule: Q01DX009 (ip), vehicle: Klucel (hydroxypropylcellulose) (HPC)
  T/C: 100 % of control
dose: 12.5 mg/kg/injection, schedule: Q01DX009 (ip), vehicle: Klucel (hydroxypropylcellulose) (HPC)
  T/C: 100 % of control and 108 % of control
dose: 16.0 mg/kg/injection, schedule: Q01DX009 (ip), vehicle: Klucel (hydroxypropylcellulose) (HPC)
  T/C: 100 % of control
[13]
  T/C: 87 % of control and 113 % of control
[11]
  T/C: 91 % of control
[12]
  T/C: 100 % of control

## C[C@]12CC[C@H](O)CC1=CC[C@@H]1[C@@H]2CC[C@]2(C)c3nc4ccccc4cc3C[C@@H]12
dose: 200.0 mg/kg/injection, schedule: Q04DX003 (ip), vehicle: saline with Tween-80
  T/C: 95 % of control

## OCCNCCNCCO
dose: 50.0 mg/kg/injection, schedule: Q01DX001 (ip), vehicle: saline
  T/C: 100 % of control
dose: 100.0 mg/kg/injection, schedule: Q01DX001 (ip), vehicle: saline
  T/C: 104 % of control
dose: 200.0 mg/kg/injection, schedule: Q01DX001 (ip), vehicle: saline
  T/C: 104 % of control

## BrCc1ccc(CBr)c(Br)c1
dose: 6.0 mg/kg/injection, schedule: Q01DX009 (ip), vehicle: Klucel (hydroxypropylcellulose) (HPC)
  T/C: 89 % of control
[1]
  T/C: 92 % of control
dose: 12.0 mg/kg/injection, schedule: Q01DX009 (ip), vehicle: Klucel (hydroxypropylcellulose) (HPC)
  T/C: 103 % of control
[2]
  T/C: 96 % of control
[13]
  T/C: 96 % of control
dose: 25.0 mg/kg/injection, schedule: Q04DX003 (ip), vehicle: Klucel (hydroxypropylcellulose) (HPC)
  T/C: 100 % of control

## COC(=O)C(Cc1ccc(N(CCCl)CCCl)cc1)N=NNc1nc[nH]c1C(N)=O (stereo not given)
dose: 14.0 mg/kg/injection, schedule: Q04DX003 (ip), vehicle: saline
  T/C: 154 % of control
dose: 33.0 mg/kg/injection, schedule: Q04DX003 (ip), vehicle: saline
  T/C: 195 % of control
dose: 50.0 mg/kg/injection, schedule: Q04DX003 (ip), vehicle: saline
  T/C: 213 % of control

## CCc1c(CC(=O)O)c2cc(C)ccc2n1Cc1ccc(Cl)cc1
[10]
  T/C: 104 % of control
[6]
  T/C: 109 % of control and 118 % of control
[7]
  T/C: 104 % of control and 109 % of control

## N/C(=N/O)c1[nH]cnc1N
dose: 12.5 mg/kg/injection, schedule: Q01DX009 (ip), vehicle: water
  T/C: 101 % of control
dose: 25.0 mg/kg/injection, schedule: Q01DX009 (ip), vehicle: water
  T/C: 97 % of control
dose: 50.0 mg/kg/injection, schedule: Q01DX009 (ip), vehicle: water
  T/C: 103 % of control
dose: 100.0 mg/kg/injection, schedule: Q01DX009 (ip), vehicle: water
  T/C: 103 % of control

## CCOC(Cn1ccc(=O)[nH]c1=O)OCC
dose: 100.0 mg/kg/injection, schedule: Q04DX003 (ip), vehicle: saline sonified
  T/C: 100 % of control
dose: 200.0 mg/kg/injection, schedule: Q04DX003 (ip), vehicle: saline sonified
  T/C: 104 % of control
dose: 400.0 mg/kg/injection, schedule: Q04DX003 (ip), vehicle: saline sonified
  T/C: 109 % of control

## CNC(=O)OCc1c(-c2ccccc2)nc2sccn12
dose: 12.5 mg/kg/injection, schedule: Q01DX001 (ip), vehicle: Klucel (hydroxypropylcellulose) (HPC)
  T/C: 109 % of control
dose: 25.0 mg/kg/injection, schedule: Q01DX001 (ip), vehicle: Klucel (hydroxypropylcellulose) (HPC)
  T/C: 113 % of control

## COC(=O)C(N)CSCSCc1ccccc1 (stereo not given)
dose: 6.25 mg/kg/injection, schedule: Q04DX003 (ip), vehicle: water
  T/C: 109 % of control
dose: 12.5 mg/kg/injection, schedule: Q04DX003 (ip), vehicle: water
  T/C: 113 % of control
dose: 25.0 mg/kg/injection, schedule: Q04DX003 (ip), vehicle: water
  T/C: 104 % of control
dose: 50.0 mg/kg/injection, schedule: Q04DX003 (ip), vehicle: water
  T/C: 100 % of control
dose: 100.0 mg/kg/injection, schedule: Q04DX003 (ip), vehicle: water
  T/C: 100 % of control

## BrC1c2cccc3cccc(c23)C1Br (stereo not given)
[7]
  T/C: 150 % of control
[8]
  T/C: 88 % of control

## COc1ccc2nc3cc(Cl)ccc3c(NCCO)c2c1
dose: 37.5 mg/kg/injection, schedule: Q01DX010 (ip), vehicle: saline
  T/C: 100 % of control
dose: 75.0 mg/kg/injection, schedule: Q01DX010 (ip), vehicle: saline
  T/C: 100 % of control
dose: 150.0 mg/kg/injection, schedule: Q01DX010 (ip), vehicle: saline
  T/C: 100 % of control

## OC(CC(O)(C(F)(F)F)C(F)(F)F)c1cccc(C(F)(F)F)c1 (stereo not given)
dose: 100.0 mg/kg/injection, schedule: Q04DX003 (ip), vehicle: other
  T/C: 100 % of control
dose: 200.0 mg/kg/injection, schedule: Q04DX003 (ip), vehicle: other
  T/C: 104 % of control
dose: 400.0 mg/kg/injection, schedule: Q04DX003 (ip), vehicle: other
  T/C: 95 % of control

## COCCCNC1=C(C#N)C(=O)NC(c2cccs2)S1 (stereo not given)
[6]
  T/C: 100 % of control
[7]
  T/C: 117 % of control
[8]
  T/C: 121 % of control

## [Cl][Ni][Cl].[NH-]CCN1CC1.[NH-]CCN1CC1
dose: 6.25 mg/kg/injection, schedule: Q01DX001 (ip), vehicle: saline
  T/C: 100 % of control
dose: 12.5 mg/kg/injection, schedule: Q01DX001 (ip), vehicle: saline
  T/C: 100 % of control
dose: 25.0 mg/kg/injection, schedule: Q01DX001 (ip), vehicle: saline
  T/C: 100 % of control

## CN(C)c1ccc(/C=C/c2ccnc3ccc(Br)cc23)cc1
[6]
  T/C: 109 % of control
[7]
  T/C: 114 % of control
[8]
  T/C: 116 % of control
